Laboratory results published in patent US20090176696A1, “Methods And Compositions For Modulating An Immune Response” (priority 2006, published 2009).

Tests used:
[1] = system: BMDC with CD4+ T cells from OVA TCR transgenic mice; assay: TCT pre-treated BMDC cultured with OVA and CD4+ T cells from OVA TCR Tg mice; cytokines by ELISA; format: cell-based; settings: DC pre-treated with TCT 10 μg/ml for 2 hours; supernatant after 4 days
Protocol: Dendritic cells act as antigen presenting cells and also serve to direct the induction of distinct T cell responses. Therefore, we examined the influence of TCT on dendritic cells and their ability to promote T cell responses in vitro. Bone marrow-derived dendritic cells DC (BMDC) were cultured with CD4^+ T cells (4×10^5) from OVA T cell receptor (TCR) transgenic (Tg) mice. BMDC were pre-treated with TCT (10 μg/ml) or medium only for 2 hours prior to the addition of antigen (OVA 0.2-5 μg/ml) and CD4^+ T cells purified from the spleens of OVA TCR Tg mice. OVA-specific cytokine production was measured in supernatant taken after 4 days by ELISA.

human NOD1 = molecular target: T1, human NOD1 (Homo sapiens, UniProt Q9Y239); settings: cited from earlier work
T1 sequence (Q9Y239 1-953): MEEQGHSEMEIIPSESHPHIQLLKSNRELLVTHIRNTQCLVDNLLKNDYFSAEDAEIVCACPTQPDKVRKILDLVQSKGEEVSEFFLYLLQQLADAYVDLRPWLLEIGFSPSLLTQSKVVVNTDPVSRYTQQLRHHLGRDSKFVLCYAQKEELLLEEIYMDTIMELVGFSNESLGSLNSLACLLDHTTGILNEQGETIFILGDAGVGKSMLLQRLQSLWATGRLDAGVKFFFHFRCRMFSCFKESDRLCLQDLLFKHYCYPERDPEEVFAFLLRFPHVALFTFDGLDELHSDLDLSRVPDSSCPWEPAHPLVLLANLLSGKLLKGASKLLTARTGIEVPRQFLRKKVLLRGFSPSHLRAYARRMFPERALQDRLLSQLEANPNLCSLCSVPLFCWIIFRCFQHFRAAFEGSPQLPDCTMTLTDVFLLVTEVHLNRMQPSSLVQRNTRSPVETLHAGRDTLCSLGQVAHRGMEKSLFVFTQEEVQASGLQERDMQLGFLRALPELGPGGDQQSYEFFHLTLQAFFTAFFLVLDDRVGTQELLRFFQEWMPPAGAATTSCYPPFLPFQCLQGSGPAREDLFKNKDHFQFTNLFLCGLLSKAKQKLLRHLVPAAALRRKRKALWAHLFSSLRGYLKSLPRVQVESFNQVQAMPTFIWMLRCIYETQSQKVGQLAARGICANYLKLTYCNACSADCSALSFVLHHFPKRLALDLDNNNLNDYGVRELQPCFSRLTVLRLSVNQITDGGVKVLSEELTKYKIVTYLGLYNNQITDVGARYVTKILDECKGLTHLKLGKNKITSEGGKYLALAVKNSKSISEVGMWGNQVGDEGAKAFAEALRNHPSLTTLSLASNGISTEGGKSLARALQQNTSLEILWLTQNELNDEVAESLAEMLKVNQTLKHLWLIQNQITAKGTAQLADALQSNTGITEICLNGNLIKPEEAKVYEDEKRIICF

SMILES: CC(=O)NC1C(OC2C3COC(O3)C(NC(C)=O)C2OC(C)C(=O)NC(C)C(=O)NC(CCC(=O)NC(CCCC(N)C(=O)NC(C)C(=O)O)C(=O)O)C(=O)O)OC(CO)C(O)C1O (centres unmarked) [TCT, N-acetylglucosaminyl-1,6-anhydro-N-acetylmuramylalanyl-γ-glutamyldiaminopimelylalanine]
- OVA-specific IFN-γ production [1]: did not affect
- OVA-specific IL-4 production [1]: significantly reduced
- OVA-specific IL-5 production [1]: significantly reduced
- OVA-specific IL-13 production [1]: significantly reduced
- NOD1 detection of TCT (human NOD1): poorly detected
